Experimental data reported in PubChem BioAssay AID2060337 (Molecular Pharmacology Branch, DTP, NCI, 2025).

System: 832693-133-R-J1-PDC multi-cell spheroids, viability
Experiment: Anticancer human tumor 832693-133-R-J1-PDC patient-derived head and neck squamous carcinoma cell line growth inhibition [IpAb]
Settings: for IC50: curve of first compound; for viability, T/C: stronger effect = lower value
Text: Combinatorial screen of targeted agents with ipatasertib and abemaciclib in multi-cell type tumor spheroids
A high-throughput screen of multi-cell type tumor spheroids was designed to identify active combinations of targeted small molecules and ipatasertib or abemaciclib. Complex spheroids include a stromal component modeled by human endothelial cells (HUVEC) and fibroblasts modeled by human mesenchymal stem cells (MSCs). The concentration ranges selected for each drug and investigational agent were based upon clinically achievable concentrations if the clinical Cmax of the agent was known.
Compounds. The drugs and investigational agents: ipatasertib (NSC767898), abemaciclib(NSC768073), selumetinib (NSC741078), trametinib (758246), adavosertib (NSC754352), everolimus (NSC733504), sapanisertib (NSC764658), vemurafenib (NSC761431), venetoclax (NSC766270), copanlisib (NSC809693), apelisib (NSC765974), palbociblib (NSC758247), vemurafenib (NSC761431), dabrafenib (NSC764134), ravoxertinib (NSC781343), BMS-387032 (NSC767048), sotorasib (NSC818433), talazoparib (NSC767125) and afursertib (NSC778305), were obtained from the National Cancer Institute (NCI) Developmental Therapeutics Program Chemical Repository. The FDA-approved anticancer drug set is available from the NCI Developmental Therapeutics Program. […] The stock solutions were prepared in dimethyl sulfoxide (DMSO, Sigma-Aldrich, St. Louis, MO, cat. D2650) at 800-fold the tested concentration and stored at -70 degrees C prior to their use. All drugs and investigational agents were tested over a range starting from a high concentration at or near the clinical Cmax and decreasing in half-log increments. If the clinical Cmax for an agent had not been determined, the highest concentration tested was 10 microM.
NCI60 Cell Culture. NCI60 cell lines were obtained from the NCI Developmental Therapeutics Program Tumor Repository. For each lot of cells, the Repository performed Applied Biosystems AmpFLSTR Identifiler testing with PCR amplification to confirm consistency with the published Identifier STR profile for each cell line. Cells were kept in continuous culture for no more than 20 passages. The optimal seeding densities for each of the cell lines at each time point assessed were determined prior to performing the concentration response studies. Briefly, the NCI60 human tumor lines were grown as monolayers in RPMI 1640 medium supplemented with 10% FBS and 2 mmol/L L-glutamine.
An additional 9 lines were from the NCI60 cell line panel including MDA-MB-231 breast carcinoma, MDA-MB-468 breast carcinoma, MCF7 breast carcinoma, Hs578T breast carcinoma, MALME-3M melanoma, SK-MEL-2 melanoma, SK-OV-3 ovarian carcinoma, DU-145 prostate carcinoma, PC-3 prostate carcinoma, all cell lines along with major genetic alterations are listed on Table 2. Pooled donor human umbilical vein endothelial cells (HUVEC, Lonza, cat. CC-2519) and human mesenchymal stem cells (hMSC, Lonza, cat. PT-2501) were purchased from Lonza (Walkersville, MD).
PDMR cell lines were grown in complete medium (DC medium): Dulbecco's modified Eagle's medium (DMEM)/F12 supplemented with 5% fetal bovine serum (FBS), 2 mM L-glutamine, 100 U/mL penicillin and 100 µg/ml streptomycin, 0.4 µg/ml hydrocortisone, 10 ng/ml epidermal growth factor (EGF) recombinant human protein, 24 µg/mL adenine, and 0.1 mg/mL primocin. During culture from frozen stock vials, PDMR cells were cultured in the same medium containing 10 µM Y-27632 (see Table 3). The PDCs were cultured in complete DMEM/F12 media without 10 microM Y-27632 dihydrochloride for at least two passages prior to the screen. The pooled donor HUVEC and hMSC were cultured in endothelial cell growth medium 2 (PromoCell, Heidelberg, Germany, cat. C-22011) and mesenchymal stem cell growth medium 2 (PromoCell, cat. C-28009), respectively. For all experiments, HUVEC and hMSC were used at passages </=5.
[…]

[1] = second compound 0.1 µM, first compound 0.0316 µM
[2] = second compound 0.1 µM, first compound 0.1 µM
[3] = second compound 0.1 µM, first compound 0.316 µM
[4] = second compound 0.1 µM, first compound 1 µM
[5] = second compound 0.316 µM, first compound 0.0316 µM
[6] = second compound 0.316 µM, first compound 0.1 µM
[7] = second compound 0.316 µM, first compound 0.316 µM
[8] = second compound 0.316 µM, first compound 1 µM
[9] = second compound 1 µM, first compound 0.0316 µM
[10] = second compound 1 µM, first compound 0.1 µM
[11] = second compound 1 µM, first compound 0.316 µM
[12] = second compound 1 µM, first compound 1 µM
[13] = second compound 3.16 µM, first compound 0.0316 µM
[14] = second compound 3.16 µM, first compound 0.1 µM
[15] = second compound 3.16 µM, first compound 0.316 µM
[16] = second compound 3.16 µM, first compound 1 µM
[17] = second compound 10 µM, first compound 0.0316 µM
[18] = second compound 10 µM, first compound 0.1 µM
[19] = second compound 10 µM, first compound 0.316 µM
[20] = second compound 10 µM, first compound 1 µM
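Also: spheroids exposed to the drugs for one week before the viability readout.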
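For viability, T/C in this document: 100% = DMSO vehicle control wells.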

CC(=O)c1c(C)c2cnc(Nc3ccc(N4CCNCC4)cn3)nc2n(C2CCCC2)c1=O + CC(C)NCC(C(=O)N1CCN(c2ncnc3c2C(C)CC3O)CC1)c1ccc(Cl)cc1
IC50 (second compound 0.1 µM): 69 nM
IC50 (second compound 0.316 µM): 11.7 nM
IC50 (second compound 1 µM): 2.65 nM
IC50 (second compound 3.16 µM): 1.68 nM
IC50 (second compound 10 µM): 2.82 nM
viability, T/C (second compound 0.1 µM, first compound 0.000949 µM): 90.5%
viability, T/C (second compound 0.1 µM, first compound 0.003 µM): 75%
viability, T/C (second compound 0.1 µM, first compound 0.00949 µM): 66.7%
viability, T/C (second compound 0.1 µM, first compound 0.03 µM): 53.4%
viability, T/C (second compound 0.1 µM, first compound 0.0949 µM): 47.8%
viability, T/C (second compound 0.1 µM, first compound 0.3 µM): 44.7%
viability, T/C (second compound 0.316 µM, first compound 0.000949 µM): 64.8%
viability, T/C (second compound 0.316 µM, first compound 0.003 µM): 62.6%
viability, T/C (second compound 0.316 µM, first compound 0.00949 µM): 51.2%
viability, T/C (second compound 0.316 µM, first compound 0.03 µM): 41.5%
viability, T/C (second compound 0.316 µM, first compound 0.0949 µM): 31.4%
viability, T/C (second compound 0.316 µM, first compound 0.3 µM): 34.1%
viability, T/C (second compound 1 µM, first compound 0.000949 µM): 56.9%
viability, T/C (second compound 1 µM, first compound 0.003 µM): 49.6%
viability, T/C (second compound 1 µM, first compound 0.00949 µM): 36.6%
viability, T/C (second compound 1 µM, first compound 0.03 µM): 33.3%
viability, T/C (second compound 1 µM, first compound 0.0949 µM): 27.8%
viability, T/C (second compound 1 µM, first compound 0.3 µM): 29.6%
viability, T/C (second compound 3.16 µM, first compound 0.000949 µM): 56.2%
viability, T/C (second compound 3.16 µM, first compound 0.003 µM): 45.1%
viability, T/C (second compound 3.16 µM, first compound 0.00949 µM): 31.6%
viability, T/C (second compound 3.16 µM, first compound 0.03 µM): 34.4%
viability, T/C (second compound 3.16 µM, first compound 0.0949 µM): 23.5%
viability, T/C (second compound 3.16 µM, first compound 0.3 µM): 20.8%
viability, T/C (second compound 10 µM, first compound 0.000949 µM): 61%
viability, T/C (second compound 10 µM, first compound 0.003 µM): 50.5%
viability, T/C (second compound 10 µM, first compound 0.00949 µM): 37.8%
viability, T/C (second compound 10 µM, first compound 0.03 µM): 30.5%
viability, T/C (second compound 10 µM, first compound 0.0949 µM): 26.9%
viability, T/C (second compound 10 µM, first compound 0.3 µM): 21%

COc1c(OCCCN2CCOCC2)ccc2c3n(c(=NC(=O)c4cnc(N)nc4)nc12)CCN3 + CC(C)NCC(C(=O)N1CCN(c2ncnc3c2C(C)CC3O)CC1)c1ccc(Cl)cc1
IC50 (second compound 0.1 µM): 15.4 nM
IC50 (second compound 0.316 µM): 5.27 nM
IC50 (second compound 1 µM): < 3.16 nM
IC50 (second compound 3.16 µM): < 3.16 nM
IC50 (second compound 10 µM): < 3.16 nM
viability, T/C (second compound 0.1 µM, first compound 0.00316 µM): 83.1%
viability, T/C (second compound 0.1 µM, first compound 0.01 µM): 63.4%
viability, T/C [1]: 27.4%
viability, T/C [2]: 7.23%
viability, T/C [3]: 4.92%
viability, T/C [4]: 4.02%
viability, T/C (second compound 0.316 µM, first compound 0.00316 µM): 59.6%
viability, T/C (second compound 0.316 µM, first compound 0.01 µM): 37.7%
viability, T/C [5]: 19.2%
viability, T/C [6]: 7.29%
viability, T/C [7]: 3.93%
viability, T/C [8]: 3.87%
viability, T/C (second compound 1 µM, first compound 0.00316 µM): 43.2%
viability, T/C (second compound 1 µM, first compound 0.01 µM): 20.6%
viability, T/C [9]: 12.7%
viability, T/C [10]: 6.94%
viability, T/C [11]: 4.52%
viability, T/C [12]: 3.27%
viability, T/C (second compound 3.16 µM, first compound 0.00316 µM): 30.5%
viability, T/C (second compound 3.16 µM, first compound 0.01 µM): 18.4%
viability, T/C [13]: 11.2%
viability, T/C [14]: 7.39%
viability, T/C [15]: 5.57%
viability, T/C [16]: 4.86%
viability, T/C (second compound 10 µM, first compound 0.00316 µM): 32.8%
viability, T/C (second compound 10 µM, first compound 0.01 µM): 22.8%
viability, T/C [17]: 14.2%
viability, T/C [18]: 7.94%
viability, T/C [19]: 5.9%
viability, T/C [20]: 5.91%

Cc1nc(NC(=O)N2CCCC2C(N)=O)sc1-c1ccnc(C(C)(C)C(F)(F)F)c1 (stereo not given) + CC(C)NCC(C(=O)N1CCN(c2ncnc3c2C(C)CC3O)CC1)c1ccc(Cl)cc1
IC50 (second compound 0.1 µM): 452 nM
IC50 (second compound 0.316 µM): 260 nM
IC50 (second compound 1 µM): 40.9 nM
IC50 (second compound 3.16 µM): < 31.6 nM
IC50 (second compound 10 µM): 45 nM
viability, T/C [1]: 90.3%
viability, T/C [2]: 78.8%
viability, T/C [3]: 51.3%
viability, T/C [4]: 41%
viability, T/C (second compound 0.1 µM, first compound 3.16 µM): 14.1%
viability, T/C (second compound 0.1 µM, first compound 10 µM): 4.68%
viability, T/C [5]: 77.8%
viability, T/C [6]: 64.2%
viability, T/C [7]: 49%
viability, T/C [8]: 23.8%
viability, T/C (second compound 0.316 µM, first compound 3.16 µM): 12.8%
viability, T/C (second compound 0.316 µM, first compound 10 µM): 3.31%
viability, T/C [9]: 52.2%
viability, T/C [10]: 41.5%
viability, T/C [11]: 26.8%
viability, T/C [12]: 16%
viability, T/C (second compound 1 µM, first compound 3.16 µM): 9.89%
viability, T/C (second compound 1 µM, first compound 10 µM): 2.93%
viability, T/C [13]: 46%
viability, T/C [14]: 32.8%
viability, T/C [15]: 24.4%
viability, T/C [16]: 16.3%
viability, T/C (second compound 3.16 µM, first compound 3.16 µM): 10.7%
viability, T/C (second compound 3.16 µM, first compound 10 µM): 3.55%
viability, T/C [17]: 55.6%
viability, T/C [18]: 38.4%
viability, T/C [19]: 28.6%
viability, T/C [20]: 19.1%
viability, T/C (second compound 10 µM, first compound 3.16 µM): 13.3%
viability, T/C (second compound 10 µM, first compound 10 µM): 3.58%
